These results are taken from patent US11542262B2, “Phosphatidylinositol 3-kinase inhibitors” (NANJING ZHENGXIANG PHARMACEUTICALS CO., LTD., priority 2019, dated 2023).

One experiment has as its target T1, PI3K gamma (Mus musculus, UniProt Q9JHG7).
T1 construct: endogenous in cells; host or cells: RAW264.7
As to the kind of experiment: Raw264.7 cell assay: phosphorylation of AKT in C5a stimulated RAW264.7 cells (AlphaLISA). Conditions: pAKT, read-out: PI3K gamma Raw264.7 cell (nM) cellular activity (IC50). It counts as cell-based. As for the experimental part: This study aims to determine the inhibitory effect of compounds on PI3K gamma and PI3K delta in corresponding cell based assays. PI3K gamma activity was reflected by phosphorylation of AKT in C5a stimulated RAW264.7 cells, and PI3K delta activity was reflected by phosphorylation of AKT in anti-IgM stimulated Raji cells. Phosphorylation of AKT in cells was determined using AlphaLISA technology from PerkinElmer.
Raw264.7 cell assay: Prepare Passage 15 Raw264.7 cell and add 6 μL of 30K cells per well in 384-well plate by multidrop. Centrifuge at 500 RPM for 30 s and incubate for 2 hours at 37° C., 5% CO2. Add 30 nL compound by echo and incubate for 30 min at 37° C., 5% CO2. […] Add 2 μL of 5× lysis buffer by multidrop, incubate for 10 min on a plate shaker. Add 5 μL acceptor mix provided in the kit, centrifuge at 1000 RPM for 1 min. Add 5 μL donor mix provided in the kit, centrifuge at 1000 RPM for 1 min and incubate in dark for 2 hours at 25° C. Read AlphaLISA signal on Envision.
Y=Bottom+(Top−Bottom)/(1+10^((Log IC50−X)*Hill Slope)) X: Log of cpd concentration Y: Inhibition
A general note: In Alpha technology, singlet oxygen from a donor bead excites a nearby acceptor bead.

Another experiment has as its target PI3Kγ (Homo sapiens, UniProt P48736). Description: ADP-Glo luminescent assay, enzymatic activity of PI3K gamma. It counts as biochemical. Conditions: ATP 25 μM; read-out: PI3K gamma (nM) inhibitory activity (IC50). As to the method: The compounds would be tested from 1 or 10 μM, 3-fold dilution for 10 doses, in duplicate.
Compound preparation: Dilute a compound to 100× of the final desired highest inhibitor concentration in reaction by 100% DMSO. Transfer 100 μl of this compound dilution to a well in a 96-well plate and serially dilute it with DMSO for a total of 10 concentrations.
Kinase reaction: Prepare a solution of PI3K in 1× kinase buffer at 2-fold the final concentration of each reagent in the assay. Control wells contain 1× kinase buffer without enzyme. Prepare substrate solution of PIP2 substrate and ATP in 1× kinase reaction buffer at 2-fold of the final concentration. Add concentration substrate solution to each well to the final concentration. Cover the assay plate, shake to mix, and incubate at room temperature for 1 hour. Add 5 μl of ADP-Glo reagent to each well to stop the reaction. […] Add 10 ul Kinase Detection Reagent to each well, shake 1 min, equilibrate for 30 min before reading on a luminescence plate reader.
Data Analysis: Convert RLU values to percent inhibition values as Percent inhibition=(max−sample RLU)/(max−min)*100. “min”—no enzyme control; “max”—DMSO control. Fit the data in XLFit excel add-in version 5.4.0.8 to obtain IC50 values. Y=Bottom+(Top−Bottom)/(1+(IC50/X)^HillSlope).
For orientation: In ADP-Glo the light output rises with the ADP produced.

Chain of PI3Kγ (P48736 whole entry, species assumed): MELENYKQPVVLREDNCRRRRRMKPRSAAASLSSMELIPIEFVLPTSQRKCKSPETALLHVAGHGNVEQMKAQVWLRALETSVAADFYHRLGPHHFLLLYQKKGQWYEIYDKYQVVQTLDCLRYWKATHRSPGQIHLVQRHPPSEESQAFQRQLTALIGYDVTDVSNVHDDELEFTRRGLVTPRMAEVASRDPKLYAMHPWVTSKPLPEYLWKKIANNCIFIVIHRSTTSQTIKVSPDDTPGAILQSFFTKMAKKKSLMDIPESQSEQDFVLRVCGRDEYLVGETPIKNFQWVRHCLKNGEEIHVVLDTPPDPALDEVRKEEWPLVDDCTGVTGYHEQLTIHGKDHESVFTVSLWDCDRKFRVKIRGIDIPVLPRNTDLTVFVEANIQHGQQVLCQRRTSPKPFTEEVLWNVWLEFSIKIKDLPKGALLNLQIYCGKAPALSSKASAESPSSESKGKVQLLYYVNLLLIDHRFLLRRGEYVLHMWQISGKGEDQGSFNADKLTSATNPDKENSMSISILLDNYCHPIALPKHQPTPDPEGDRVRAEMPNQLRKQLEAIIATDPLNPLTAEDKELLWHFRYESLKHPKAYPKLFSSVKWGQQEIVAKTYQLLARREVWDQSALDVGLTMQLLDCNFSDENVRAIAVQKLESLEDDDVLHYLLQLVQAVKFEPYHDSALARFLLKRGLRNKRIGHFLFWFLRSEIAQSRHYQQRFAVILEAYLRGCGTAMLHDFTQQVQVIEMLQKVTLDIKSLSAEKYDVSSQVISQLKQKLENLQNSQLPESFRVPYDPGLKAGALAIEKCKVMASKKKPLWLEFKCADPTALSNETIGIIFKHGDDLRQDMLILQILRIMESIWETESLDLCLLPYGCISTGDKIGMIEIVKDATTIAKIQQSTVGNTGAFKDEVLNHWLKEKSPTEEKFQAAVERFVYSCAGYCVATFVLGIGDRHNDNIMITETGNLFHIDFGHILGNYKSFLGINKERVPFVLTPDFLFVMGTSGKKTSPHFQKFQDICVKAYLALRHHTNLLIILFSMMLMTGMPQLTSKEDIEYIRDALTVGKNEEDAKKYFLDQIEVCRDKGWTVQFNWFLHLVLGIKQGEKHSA
T1 sequence (Q9JHG7 whole entry): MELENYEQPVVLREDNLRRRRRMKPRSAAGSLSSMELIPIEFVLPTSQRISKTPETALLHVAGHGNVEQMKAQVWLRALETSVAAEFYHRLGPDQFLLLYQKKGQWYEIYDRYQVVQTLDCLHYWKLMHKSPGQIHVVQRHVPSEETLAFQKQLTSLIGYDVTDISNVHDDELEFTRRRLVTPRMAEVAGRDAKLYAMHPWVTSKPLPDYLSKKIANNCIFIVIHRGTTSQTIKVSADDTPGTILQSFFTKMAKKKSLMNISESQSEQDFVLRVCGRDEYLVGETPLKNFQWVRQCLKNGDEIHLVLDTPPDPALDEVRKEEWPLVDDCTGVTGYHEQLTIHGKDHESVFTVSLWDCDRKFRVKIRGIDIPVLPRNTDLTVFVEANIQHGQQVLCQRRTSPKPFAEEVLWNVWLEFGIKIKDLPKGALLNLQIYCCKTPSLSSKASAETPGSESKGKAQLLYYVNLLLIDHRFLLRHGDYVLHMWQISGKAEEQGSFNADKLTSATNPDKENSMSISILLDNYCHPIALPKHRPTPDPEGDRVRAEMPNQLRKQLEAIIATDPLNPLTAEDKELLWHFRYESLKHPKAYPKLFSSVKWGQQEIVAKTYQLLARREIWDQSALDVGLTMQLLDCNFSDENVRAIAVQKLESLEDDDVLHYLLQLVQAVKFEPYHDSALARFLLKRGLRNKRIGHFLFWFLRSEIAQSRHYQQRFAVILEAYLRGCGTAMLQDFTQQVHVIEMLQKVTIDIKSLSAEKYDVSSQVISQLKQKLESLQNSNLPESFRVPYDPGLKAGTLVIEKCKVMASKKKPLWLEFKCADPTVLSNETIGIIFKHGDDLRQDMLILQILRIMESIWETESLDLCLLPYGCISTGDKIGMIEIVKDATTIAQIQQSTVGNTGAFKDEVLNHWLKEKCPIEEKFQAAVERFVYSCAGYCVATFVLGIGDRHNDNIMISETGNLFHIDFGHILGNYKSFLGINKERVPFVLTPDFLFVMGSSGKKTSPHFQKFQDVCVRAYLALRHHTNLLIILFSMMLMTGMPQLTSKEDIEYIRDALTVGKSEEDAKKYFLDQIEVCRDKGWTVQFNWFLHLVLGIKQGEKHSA
T1 sequence (Q5SW28 whole entry partner): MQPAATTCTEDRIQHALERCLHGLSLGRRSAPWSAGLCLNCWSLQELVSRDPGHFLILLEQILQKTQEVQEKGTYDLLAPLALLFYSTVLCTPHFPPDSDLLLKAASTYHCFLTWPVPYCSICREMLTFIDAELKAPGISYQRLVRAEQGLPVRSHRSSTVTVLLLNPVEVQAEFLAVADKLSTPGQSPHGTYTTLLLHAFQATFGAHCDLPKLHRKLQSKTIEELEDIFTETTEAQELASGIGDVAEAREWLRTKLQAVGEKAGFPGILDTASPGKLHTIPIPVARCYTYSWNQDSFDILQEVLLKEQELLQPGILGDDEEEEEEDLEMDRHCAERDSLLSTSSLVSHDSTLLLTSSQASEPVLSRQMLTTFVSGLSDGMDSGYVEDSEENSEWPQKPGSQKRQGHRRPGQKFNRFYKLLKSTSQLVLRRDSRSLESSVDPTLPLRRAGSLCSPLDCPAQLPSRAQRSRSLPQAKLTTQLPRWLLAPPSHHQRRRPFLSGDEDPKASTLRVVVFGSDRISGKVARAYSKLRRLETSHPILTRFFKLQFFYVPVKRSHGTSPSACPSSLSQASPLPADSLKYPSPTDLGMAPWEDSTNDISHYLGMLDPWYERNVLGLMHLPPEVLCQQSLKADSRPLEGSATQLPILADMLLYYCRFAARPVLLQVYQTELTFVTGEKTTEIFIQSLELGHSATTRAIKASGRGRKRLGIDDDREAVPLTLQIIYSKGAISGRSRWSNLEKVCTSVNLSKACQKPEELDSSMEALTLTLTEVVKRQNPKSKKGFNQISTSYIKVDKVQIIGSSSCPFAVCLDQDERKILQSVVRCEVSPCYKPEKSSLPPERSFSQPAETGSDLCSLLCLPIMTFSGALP

For `CC[S@@+]([O-])c1cc(-c2sc(NC(C)=O)nc2C)cc2c1C(=O)N([C@@H](C)C1CC1)C2` (racemic) [Compound 13, N-(5-(2-((S)-1-cyclopropylethyl)-7-(ethylsulfinyl)-1-oxoisoindolin-5-yl)-4-methylthiazol-2-yl)acetamide], the concentration for half-maximal inhibition (IC50) at PI3K gamma amounted to 22 nM; on PI3Kγ, 3.1 nM.
For the compound `CC(=O)Nc1nc(C)c(-c2cc3c(c([S+]([O-])C(C)C)c2)C(=O)N([C@@H](C)C2CC2)C3)s1` (mixture of isomers) [Compound 14, N-(5-(2-((S)-1-cyclopropylethyl)-7-(isopropylsulfinyl)-1-oxoisoindolin-5-yl)-4-methylthiazol-2-yl)acetamide], the IC50 came out at 27 nM on PI3K gamma and 4.2 nM at PI3Kγ.
As for `CC(=O)Nc1nc(C)c(-c2cc3c(c([S+](C)[O-])c2)C(=O)N(C(C)(C)C)C3)s1` (racemic) [Compound 17, N-(5-(2-(tert-butyl)-7-(methylsulfinyl)-1-oxoisoindolin-5-yl)-4-methylthiazol-2-yl)acetamide], the values for the IC50 on PI3K gamma and at PI3Kγ were 118 nM and 4.5 nM, respectively.
For `Cc1nc(NC(=O)C(C)C)sc1-c1cc2c(c(P(C)(C)=O)c1)C(=O)N([C@@H](C)C1CC1)C2` [Compound 4, (S)-N-(5-(2-(1-cyclopropylethyl)-7-(dimethylphosphoryl)-1-oxoisoindolin-5-yl)-4-methylthiazol-2-yl)isobutyramide], the IC50 was 1850 nM on PI3K gamma and 4.5 nM at PI3Kγ.
For `CCP(=O)(CC)c1cc(-c2sc(NC(C)=O)nc2C)cc2c1C(=O)N([C@@H](C)C1CC1)C2` [Compound 5, (S)-N-(5-(2-(1-cyclopropylethyl)-7-(diethylphosphoryl)-1-oxoisoindolin-5-yl)-4-methylthiazol-2-yl)acetamide], the IC50 at PI3K gamma was 307 nM; on PI3Kγ, 5.9 nM.
For the compound `CC(=O)Nc1nc(C)c(-c2cc3c(c(N4CCCC4=O)n2)C(=O)N([C@@H](C)C2CC2)C3)s1` [Compound 25, (S)-N-(5-(2-(1-cyclopropylethyl)-3-oxo-4-(2-oxopyrrolidin-1-yl)-2,3-dihydro-M-pyrrolo[3,4-c]pyridin-6-yl)-4-methylthiazol-2-yl)acetamide], the figures for the IC50 at PI3K gamma and at PI3Kγ were 446 nM and 3.8 nM, respectively.
In the case of `CC(=O)Nc1nc(C)c(-c2cc3c(c(C)n2)C(=O)N([C@@H](C)C2CC2)C3)s1` [Compound 27, (S)-N-(5-(2-(1-cyclopropylethyl)-4-methyl-3-oxo-2,3-dihydro-1H-pyrrolo[3,4-c]pyridin-6-yl)-4-methylthiazol-2-yl)acetamide], the IC50 at PI3K gamma and at PI3Kγ was 29 nM throughout.
In the case of `CC(=O)Nc1nc(C)c(-c2cc3c(c(NC(=O)N(C)C)n2)C(=O)N([C@@H](C)C2CC2)C3)s1` [Compound 28, (S)-N-(5-(2-(1-cyclopropylethyl)-4-(3,3-dimethylureido)-3-oxo-2,3-dihydro-1H-pyrrolo[3,4-c]pyridin-6-yl)-4-methylthiazol-2-yl)acetamide], the results for the IC50 at PI3K gamma and at PI3Kγ were 65 nM and 1.5 nM, respectively.
Turning to `CC(=O)Nc1nc(C)c(-c2cc3c(c(C(=O)N(C)C)n2)C(=O)N([C@@H](C)C2CC2)C3)s1` [Compound 29, (S)-6-(2-acetamido-4-methylthiazol-5-yl)-2-(1-cyclopropylethyl)-N,N-dimethyl-3-oxo-2,3-dihydro-1H-pyrrolo[3,4-c]pyridine-4-carboxamide], the IC50 on PI3K gamma was 3240 nM; at PI3Kγ it was 2.5 nM.
In the case of `CC(=O)Nc1nc(Cl)c(-c2cc3c(c(N4CCOCC4)n2)C(=O)N([C@@H](C)C2CC2)C3)s1` [Compound 53, (S)-N-(4-chloro-5-(2-(1-cyclopropylethyl)-4-morpholino-3-oxo-2,3-dihydro-1H-pyrrolo[3,4-c]pyridin-6-yl)thiazol-2-yl)acetamide], the IC50 at PI3Kγ turned out to be 1.8 nM.

One may read the IC50 as the concentration that gives 50% inhibition.
